Assay results reported in ChEMBL document CHEMBL1201862, “PubChem BioAssay data set” (2004).
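Cells were grown in 96-well plates and exposed to each compound for 48 hours at five concentrations; endpoints were interpolated linearly between bracketing concentrations, or set to the highest concentration if not reached. GI50 marks 50% less growth.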 The source made the active and inactive calls. Rule as the data show it: active = GI50 up to about 1.1 µM and inactive = higher.

Columns and labels:
Test in all cases: DTP human tumour cell line panel, 48 h
[1] = test system: 786-0
[2] = test system: SN12C
[3] = test system: LOX IMVI
[4] = test system: T47D
[5] = test system: NCI-H460
[6] = test system: HT-29
[7] = test system: SK-OV-3
[8] = test system: BT-549
[9] = test system: SF-539
[10] = test system: KM12
[11] = test system: K562
[12] = test system: HCT-15
[13] = test system: DU-145
[14] = test system: MCF7
[15] = test system: OVCAR-3
[16] = test system: Malme-3M
[17] = test system: TK-10
[18] = test system: SNB-75
[19] = test system: HCT-116
[20] = test system: U-251

SMILES | GI50 [1] | GI50 [2] | GI50 [3] | GI50 [4] | GI50 [5] | GI50 [6] | GI50 [7] | GI50 [8] | GI50 [9] | GI50 [10] | GI50 [11] | GI50 [12] | GI50 [13] | GI50 [14] | GI50 [15] | GI50 [16] | GI50 [17] | GI50 [18] | GI50 [19] | GI50 [20]
COc1ccc(-c2c(C#N)c(O)n(C3OC(CO)C(O)C(O)C3O)c(=S)c2C#N)cc1 (centres undefined) | > 100 µM (inactive) | > 100 µM (inactive) | > 100 µM (inactive) | > 100 µM (inactive) | > 100 µM (inactive) | > 100 µM (inactive) | > 100 µM (inactive) | > 100 µM (inactive) | > 100 µM (inactive) | > 100 µM (inactive) | > 100 µM (inactive) | > 100 µM | > 100 µM (inactive) | > 100 µM (inactive) | > 100 µM (inactive) | > 100 µM (inactive) | > 100 µM (inactive) | > 100 µM (inactive) |  | 
Cc1cc(C)c2c(c1)CC1(Cc3c(ccc(C)c3C)C1=O)C2=O (centres undefined) | > 100 µM (inactive) | > 100 µM (inactive) |  | > 100 µM (inactive) | > 100 µM (inactive) | > 100 µM (inactive) | > 100 µM (inactive) | > 100 µM (inactive) | > 100 µM (inactive) | > 100 µM (inactive) | > 100 µM (inactive) | > 100 µM | > 100 µM (inactive) | > 100 µM (inactive) | > 100 µM (inactive) | > 100 µM (inactive) | > 100 µM (inactive) | > 100 µM (inactive) | > 100 µM (inactive) | > 100 µM (inactive)
O=C(CC(C(=O)c1cccs1)c1ccc2c(c1)OCO2)c1ccccc1 (centres undefined) | > 100 µM (inactive) | > 100 µM (inactive) | > 100 µM (inactive) | 52.7 µM (inactive) | 46.7 µM (inactive) | > 100 µM (inactive) | > 100 µM (inactive) | > 100 µM (inactive) | > 100 µM (inactive) | > 100 µM (inactive) |  | > 100 µM | > 100 µM (inactive) | > 100 µM (inactive) | > 100 µM (inactive) | > 100 µM (inactive) | 19.6 µM (inactive) | > 100 µM (inactive) | 50.5 µM (inactive) | > 100 µM (inactive)
COc1ccc(C(=O)/C=C/c2cccnc2)cc1OC | 4.51 µM (inactive) | 6.25 µM (inactive) | 1.58 µM (inactive) | 8.45 µM (inactive) |  | 4.1 µM (inactive) | 15.3 µM (inactive) | 6.18 µM (inactive) | 2.73 µM (inactive) |  | 13.9 µM (inactive) | 11.4 µM | 14.6 µM (inactive) | 3.27 µM (inactive) | 3.4 µM (inactive) | 15.2 µM (inactive) | 15.7 µM (inactive) | 11.8 µM (inactive) | 4.36 µM (inactive) | 5.09 µM (inactive)
NC(=O)CCC(CCC(N)=O)(CCC(N)=O)[N+](=O)[O-] | > 100 µM (inactive) | > 100 µM (inactive) |  | > 100 µM (inactive) | > 100 µM (inactive) | > 100 µM (inactive) | > 100 µM (inactive) | > 100 µM (inactive) | > 100 µM (inactive) | > 100 µM (inactive) |  | > 100 µM | > 100 µM (inactive) | > 100 µM (inactive) |  | > 100 µM (inactive) | > 100 µM (inactive) | > 100 µM (inactive) | > 100 µM (inactive) | > 100 µM (inactive)
CC1=NC(=Cc2cccc(Cl)c2)C(=O)N1n1c(-c2ccccc2)nc2ccccc2c1=O | 48.6 µM (inactive) | 40.4 µM (inactive) | 25.9 µM (inactive) | 19.8 µM (inactive) | 19.3 µM (inactive) | 36 µM (inactive) | 37.8 µM (inactive) | 34.7 µM (inactive) | 36.1 µM (inactive) | 31.6 µM (inactive) | 41.6 µM (inactive) | 39.3 µM | 38.9 µM (inactive) | 20.4 µM (inactive) |  | 26.9 µM (inactive) | 50.6 µM (inactive) | 35.9 µM (inactive) | 36.5 µM (inactive) | 
CC1=NC(=O)C(C)(c2ccccc2)N1CCc1ccccc1 (centres undefined) | > 100 µM (inactive) | > 100 µM (inactive) | 58.7 µM (inactive) | 22.3 µM (inactive) |  | 26.5 µM (inactive) | > 100 µM (inactive) | > 100 µM (inactive) | 85.3 µM (inactive) | 44.3 µM (inactive) | 34.8 µM (inactive) | 35.2 µM | > 100 µM (inactive) | 55.1 µM (inactive) | 11.1 µM (inactive) | > 100 µM (inactive) | > 100 µM (inactive) | 16.5 µM (inactive) | 28 µM (inactive) | > 100 µM (inactive)
COc1ccc(C(=O)N2CCN(c3ccc4c(c3)OCC(=O)N4)CC2)cc1OC | > 100 µM (inactive) | > 100 µM (inactive) | > 100 µM (inactive) | 54.3 µM (inactive) | > 100 µM (inactive) | > 100 µM (inactive) | > 100 µM (inactive) | > 100 µM (inactive) | > 100 µM (inactive) | > 100 µM (inactive) |  | > 100 µM | > 100 µM (inactive) | > 100 µM (inactive) | > 100 µM (inactive) | > 100 µM (inactive) | > 100 µM (inactive) | > 100 µM (inactive) | > 100 µM (inactive) | > 100 µM (inactive)
C=C(C)C(=O)OC1C[C@H](COC(C)=O)C2CC=C(CO)C2C2OC(=O)C(=C)[C@H]12 (some centres undefined) | 27.6 µM (inactive) |  | 26.7 µM (inactive) | 34.8 µM (inactive) | > 100 µM (inactive) | 32.3 µM (inactive) | > 100 µM (inactive) | 61.1 µM (inactive) | > 100 µM (inactive) | > 100 µM (inactive) | 14.9 µM (inactive) | 24.8 µM | > 100 µM (inactive) | 38.1 µM (inactive) | 42.4 µM (inactive) | 16.8 µM (inactive) | 74.6 µM (inactive) | 69.2 µM (inactive) | 18.3 µM (inactive) | > 100 µM (inactive)
CCCCCCCCCCCC[C@@H](O)[C@H]1CC[C@H]([C@H](O)CC[C@H](O)[C@@H]2CC[C@@H](CCCCCCCC3=C[C@H](C)OC3=O)O2)O1 | > 50 µM (inactive) | 3.99 µM (inactive) | > 27.2 µM (inactive) | > 50 µM (inactive) | 2.54 µM (inactive) | > 50 µM (inactive) | > 50 µM (inactive) | > 50 µM (inactive) | > 50 µM (inactive) | > 50 µM (inactive) |  | > 50 µM | 7.55 µM (inactive) | > 50 µM (inactive) | > 50 µM (inactive) | > 50 µM (inactive) | > 50 µM (inactive) | > 50 µM (inactive) | 5.58 µM (inactive) | > 50 µM (inactive)
COc1cc(-c2oc3c(OC)cc(OC)c(O)c3c(=O)c2OC)cc(OC)c1OC | 4.02 µM (inactive) | > 100 µM (inactive) | 3.24 µM (inactive) | 3.76 µM (inactive) | 4.47 µM (inactive) | > 100 µM (inactive) | 3.29 µM (inactive) | 5.32 µM (inactive) | 8.57 µM (inactive) | > 100 µM (inactive) | > 100 µM (inactive) |  | 32.7 µM (inactive) | 97.1 µM (inactive) | 4.79 µM (inactive) | 5.97 µM (inactive) | > 100 µM (inactive) | 1.73 µM (inactive) | 4.32 µM (inactive) | 4.65 µM (inactive)
